In ChEMBL document CHEMBL1909046, “DrugMatrix in vitro pharmacology data”:

What was measured:
[1] = DRUGMATRIX: Calcium Channel Type L, Phenylalkylamine radioligand binding (ligand: [3H] (-)-Desmethoxyverapamil (D-888)); format: cell membranes, Rattus norvegicus, Wistar, Brain, Membrane; details: Not Active = under 50% inhibition at 10 µM
[2] = molecular target: T1, 5-hydroxytryptamine receptor 2C (Homo sapiens, UniProt P28335); experiment: DRUGMATRIX: Serotonin (5-Hydroxytryptamine) 5-HT2C radioligand binding (ligand: [3H] Mesulergine); format: cell membranes, CHO-K1, Membrane; details: cho-k1; Not Active = under 50% inhibition at 10 µM
T1 sequence (P28335 whole entry): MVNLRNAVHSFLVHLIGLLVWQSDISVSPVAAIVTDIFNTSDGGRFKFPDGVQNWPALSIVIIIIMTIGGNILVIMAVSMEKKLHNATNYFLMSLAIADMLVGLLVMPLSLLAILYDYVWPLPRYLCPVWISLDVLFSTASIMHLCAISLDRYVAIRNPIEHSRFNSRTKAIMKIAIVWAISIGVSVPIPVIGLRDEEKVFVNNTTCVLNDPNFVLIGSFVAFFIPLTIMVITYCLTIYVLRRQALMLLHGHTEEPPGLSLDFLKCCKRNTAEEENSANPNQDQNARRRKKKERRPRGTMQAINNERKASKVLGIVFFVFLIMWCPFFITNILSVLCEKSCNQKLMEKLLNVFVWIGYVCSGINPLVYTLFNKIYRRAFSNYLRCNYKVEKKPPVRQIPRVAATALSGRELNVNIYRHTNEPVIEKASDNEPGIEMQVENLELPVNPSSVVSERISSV

[3] = DRUGMATRIX: beta-Lactamase enzyme inhibition (substrate: Nitrocefin); set-up: species or system Bacillus cereus; details: Not Active = under 50% inhibition at 10 µM
[4] = molecular target: T2, Cysteinyl leukotriene receptor 1 (Homo sapiens, UniProt Q9Y271); format: cell membranes, CHO-K1, Membrane; details: cho-k1; note: in other assays of this panel Not Active means under 50% inhibition at 10 µM
T2 sequence (Q9Y271 whole entry): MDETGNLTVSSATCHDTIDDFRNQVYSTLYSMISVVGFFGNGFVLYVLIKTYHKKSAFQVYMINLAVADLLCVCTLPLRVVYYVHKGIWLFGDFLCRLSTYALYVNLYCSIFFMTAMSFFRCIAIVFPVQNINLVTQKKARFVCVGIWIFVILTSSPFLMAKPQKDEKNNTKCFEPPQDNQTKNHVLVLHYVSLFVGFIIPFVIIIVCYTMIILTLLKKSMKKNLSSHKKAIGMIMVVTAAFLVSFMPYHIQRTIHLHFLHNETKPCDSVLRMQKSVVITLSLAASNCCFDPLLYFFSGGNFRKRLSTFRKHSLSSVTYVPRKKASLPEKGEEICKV

[5] = molecular target: T3, D(4) dopamine receptor (Homo sapiens, UniProt P21917); experiment: DRUGMATRIX: Dopamine D4.2 radioligand binding (ligand: [3H] Spiperone); format: cell membranes, CHO-K1, Membrane; details: cho-k1; Not Active = under 50% inhibition at 10 µM
T3 sequence (P21917 whole entry): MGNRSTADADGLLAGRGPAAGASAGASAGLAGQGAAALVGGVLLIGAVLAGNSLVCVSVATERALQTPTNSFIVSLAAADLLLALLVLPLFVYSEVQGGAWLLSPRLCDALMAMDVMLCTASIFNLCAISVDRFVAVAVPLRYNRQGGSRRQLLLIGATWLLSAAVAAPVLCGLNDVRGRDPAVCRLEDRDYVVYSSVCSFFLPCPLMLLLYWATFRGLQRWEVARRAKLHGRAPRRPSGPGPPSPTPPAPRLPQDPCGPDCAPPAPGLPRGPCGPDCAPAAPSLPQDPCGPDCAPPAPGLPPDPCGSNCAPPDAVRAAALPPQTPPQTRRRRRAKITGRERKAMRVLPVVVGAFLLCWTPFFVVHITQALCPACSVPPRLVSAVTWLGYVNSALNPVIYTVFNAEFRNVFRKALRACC

[6] = DRUGMATRIX: Interleukin IL-1 radioligand binding (ligand: [125I] interleukin 1beta); format: cell membranes, Membrane; details: nih3t3; Not Active = under 50% inhibition at 10 µM

Nc1nc2nc[nH]c2c(=S)[nH]1 [THIOGUANINE]
Not Active: IC50 [1] | Ki [1] | IC50 [2] | IC50 [3] | Ki [3] | IC50 [4] | IC50 [5] | IC50 [6] | Ki [6]

Cc1cccc(N(C)C(=S)Oc2ccc3ccccc3c2)c1 [TOLNAFTATE]
Not Active: IC50 [1] | Ki [1] | IC50 [2] | IC50 [3] | Ki [3] | IC50 [4] | IC50 [5] | IC50 [6] | Ki [6]

NC[C@H]1CC[C@H](C(=O)O)CC1 [TRANEXAMIC ACID]
Not Active: IC50 [1] | Ki [1] | IC50 [2] | IC50 [3] | Ki [3] | IC50 [4] | IC50 [5] | IC50 [6] | Ki [6]

CC1(C)O[C@@H]2C[C@H]3[C@@H]4CCC5=CC(=O)C=C[C@]5(C)[C@@]4(F)[C@@H](O)C[C@]3(C)[C@]2(C(=O)CO)O1 [TRIAMCINOLONE ACETONIDE]
Not Active: IC50 [1] | Ki [1] | IC50 [2] | IC50 [3] | Ki [3] | IC50 [4] | IC50 [5] | IC50 [6] | Ki [6]

NS(=O)(=O)c1cc2c(cc1Cl)NC(C(Cl)Cl)NS2(=O)=O (configuration not stated) [TRICHLORMETHIAZIDE]
Not Active: IC50 [1] | Ki [1] | IC50 [2] | IC50 [3] | Ki [3] | IC50 [4] | IC50 [5] | IC50 [6] | Ki [6]

Cc1c(C)c2c(c(C)c1O)CCC(C)(COc1ccc(CC3SC(=O)NC3=O)cc1)O2 (configuration not stated) [TROGLITAZONE]
Not Active: IC50 [1] | Ki [1] | IC50 [2] | IC50 [3] | Ki [3] | IC50 [4] | IC50 [5] | IC50 [6] | Ki [6]

N[C@@H]1[C@H]2CN(c3nc4c(cc3F)c(=O)c(C(=O)O)cn4-c3ccc(F)cc3F)C[C@@H]12 [TROVAFLOXACIN]
Not Active: IC50 [1] | Ki [1] | IC50 [2] | IC50 [3] | Ki [3] | IC50 [4] | IC50 [5] | IC50 [6] | Ki [6]

N#CC(C#N)=Cc1ccc(O)c(O)c1 [TYRPHOSTIN 23]
Not Active: IC50 [1] | Ki [1] | IC50 [2] | IC50 [3] | Ki [3] | IC50 [4] | IC50 [5] | IC50 [6] | Ki [6]

CC[C@]1(O)C[C@H]2CN(CCc3c([nH]c4ccccc34)[C@@](C(=O)OC)(c3cc4c(cc3OC)N(C=O)[C@H]3[C@@](O)(C(=O)OC)[C@H](OC(C)=O)[C@]5(CC)C=CCN6CC[C@]43[C@@H]65)C2)C1 [VINCRISTINE]
Not Active: IC50 [1] | Ki [1] | IC50 [2] | IC50 [3] | Ki [3] | IC50 [4] | IC50 [5] | IC50 [6] | Ki [6]

CCCOc1ccccc1-c1nc2nn[nH]c2c(=O)[nH]1 [ZAPRINAST]
Not Active: IC50 [1] | Ki [1] | IC50 [2] | IC50 [3] | Ki [3] | IC50 [4] | IC50 [5] | IC50 [6] | Ki [6]

SODIUM NITROPRUSSIDE
Not Active: IC50 [1] | Ki [1] | IC50 [2] | Ki [2] | IC50 [3] | Ki [3] | IC50 [4] | Ki [4] | IC50 [5] | Ki [5] | IC50 [6] | Ki [6]
